We go through six compounds from US20220204473A1, “COMPOUND AS IRAK INHIBITOR” (SHANGHAI MEIYUE BIOTECH DEVELOPMENT CO., LTD., priority 2018, published 2022).

Each structure is given as a SMILES string.

For data set [1], the system named is IL-6 release in LPS-induced Balb/c female mice. Kind of data set: Inhibition of IL-6 release in LPS-induced Balb/c female mice. It is filed as in vivo, mouse. More on the design: concentration or dose not given beside the values. The following applies: administered 5 h before LPS induction, serum. Here is the method: Objective of the test: To determine the inhibitory effect of the compounds by measuring the plasma IL-6 concentration in a Balb/c mouse model with LPS-induced inflammation.
2.1 Prepared mouse serum samples (sample batch no. 20181218)
4.1 Reagent kit was equilibrated at room temperature (25-28° C.) for 20 min. After each detection, the remaining reagents were stored at 4° C.
4.3 Preparing reference standard: 1 vial of reference standard substance was added with labeled volume of reference standard diluent. The mixtures were incubated for 15 min at room temperature. Then the mixtures were gently mixed to completely dissolve the substance to prepare a reference standard stock at a final concentration of 1000 μg/mL.
4.4 Dilution of samples: The sample in each group was diluted by […], i.e., a 2-fold dilution with sample assay buffer followed by another two-fold dilution with standard diluent.
4.5 The diluted samples or standards of different concentrations were added into corresponding wells at 100 μL/well respectively, and a background correcting well (or a blank well) was set by adding only TMB buffer and terminating solution. The wells were sealed with a transparent film and incubated at room temperature for 120 min.
4.6 The plate was subjected to 5 washes, each with 300 μL of washing buffer for 15-30 sec. The plate was dried on thick absorbent paper after the last wash.
4.7 Biotinylated antibody was added at 100 μL/well (Note: the biotinylated antibody was prepared in advance and could be used directly without further dilution). The wells were sealed with a transparent film and incubated at room temperature for 60 min.
4.8 The plate was subjected to 5 washes, each with 300 μL of washing buffer for 15-30 sec. The plate was dried on thick absorbent paper after the last wash.
4.9 Horseradish peroxidase-labeled streptavidin was added at 100 μL/well. The wells were sealed with a white film and incubated away from light at room temperature for 20 min.
4.10 The plate was subjected to 5 washes, each with 300 μL of washing buffer for 15-30 sec. The plate was dried on thick absorbent paper after the last wash.
4.11 The chromogenic reagent TMB was added 100 μL/well. The wells were sealed with a white film and incubated away from light at room temperature for 20 min.
4.12 The terminating solution was added at 50 μL/well and A450 value was measured right after mixing.

In data set [2] the target is T1, hERG potassium ion channel (Homo sapiens, UniProt Q12809).
T1 construct: expressed in transfected cells; host or cells: HEK-293
T1 sequence (Q12809 whole entry): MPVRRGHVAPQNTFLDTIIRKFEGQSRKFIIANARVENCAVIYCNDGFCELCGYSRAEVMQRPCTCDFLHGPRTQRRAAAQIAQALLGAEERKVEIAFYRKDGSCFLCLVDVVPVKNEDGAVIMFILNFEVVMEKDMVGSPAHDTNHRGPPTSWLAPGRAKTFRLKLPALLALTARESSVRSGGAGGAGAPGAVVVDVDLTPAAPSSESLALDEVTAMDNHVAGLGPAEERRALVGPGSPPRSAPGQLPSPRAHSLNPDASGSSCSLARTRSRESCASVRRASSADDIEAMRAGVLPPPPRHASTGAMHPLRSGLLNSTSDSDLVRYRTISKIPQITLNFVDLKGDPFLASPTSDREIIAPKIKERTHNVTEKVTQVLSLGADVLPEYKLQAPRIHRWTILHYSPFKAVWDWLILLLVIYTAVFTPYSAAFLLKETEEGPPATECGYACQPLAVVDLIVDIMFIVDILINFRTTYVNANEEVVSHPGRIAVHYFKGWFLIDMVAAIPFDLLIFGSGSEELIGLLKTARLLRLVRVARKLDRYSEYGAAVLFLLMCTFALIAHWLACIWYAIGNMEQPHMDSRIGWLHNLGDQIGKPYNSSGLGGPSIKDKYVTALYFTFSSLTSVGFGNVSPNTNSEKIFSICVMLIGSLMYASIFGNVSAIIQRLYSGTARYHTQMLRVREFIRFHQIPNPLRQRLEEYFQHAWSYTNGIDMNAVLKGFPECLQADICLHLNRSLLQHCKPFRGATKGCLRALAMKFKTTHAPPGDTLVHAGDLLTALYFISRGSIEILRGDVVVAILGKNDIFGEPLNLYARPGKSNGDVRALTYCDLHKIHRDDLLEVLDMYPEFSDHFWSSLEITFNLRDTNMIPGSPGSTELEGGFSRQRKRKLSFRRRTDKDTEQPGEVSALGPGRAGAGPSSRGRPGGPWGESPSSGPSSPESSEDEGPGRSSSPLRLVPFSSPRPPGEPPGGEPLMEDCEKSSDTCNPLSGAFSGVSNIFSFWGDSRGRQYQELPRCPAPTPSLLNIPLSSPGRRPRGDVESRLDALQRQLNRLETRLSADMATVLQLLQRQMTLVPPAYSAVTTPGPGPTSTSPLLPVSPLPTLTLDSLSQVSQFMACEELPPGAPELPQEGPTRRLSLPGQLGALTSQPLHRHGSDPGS
Kind of data set: hERG whole-cell patch clamp in HEK-293 cells. It is filed as cell-based. Particulars: HEK-293 cells stably expressing hERG, pH 7.4, inhibition for hERG at 30 μM concentration. The procedure:
This study evaluated the cardiac safety of the compounds according to the present disclosure, and an HEK-293 cell line stably expressing hERG potassium ion channel was used for detection.
Procedures: Test compound stocks were diluted in DMSO into 0.3 mM, 1 mM, and 3 mM dilutions respectively. […] The working solutions of the test compounds were ultrasonically treated for 20 min.
Patch clamping: Under an inverted microscope, recording electrodes were controlled by micromanipulator to contact with the cell. A negative voltage was applied to create a G-omega shaped connection. After forming the G-omega shaped connection, a rapid capacitance compensation was given. Under the continuous negative voltage, the cell membrane was ruptured to form a whole-cell recording configuration. In the whole-cell recording configuration, slow capacitance compensation was given, and the values of membrane capacitance and series resistance were recorded.
Voltage stimulation scheme for cellular hERG potassium current: The cell membrane clamping voltage was −80 mV; the voltage was first elevated from −80 mV to +30 mV, held for 2.5 sec, and rapidly raised to and held at −50 mV for 4 sec, thus exciting the hERG channel tail current. Data acquisition was performed every 10 sec. −50 mV was used for drain current detection.
The cover glasses planted with cells were placed in the recording chamber of an inverted microscope. Negative control and test compounds flowed through the recording chamber in an ascending order of concentration by gravity perfusion to quickly act on the cells. During the recording, the extracellular buffer was continuously circulated by a vacuum pump. The current detected in a cell in the negative control was used as the background for the cell. Each concentration was allowed to act for 5 min or until the current was stabilized. All experiments were performed at room temperature.
The current of each concentration was normalized first
and then the inhibition rate was calculated
Basic statistics were calculated for each concentration, including mean, standard deviation (SD), standard error (SE), and replicates (n). The dose-dependent curve was fitted with the following equation and the half maximal inhibitory concentration (IC50) of the test compounds was calculated:
wherein C represents the test compound concentration, IC50 represents the half maximal inhibitory concentration, and h represents the Hill coefficient. Curve fitting and calculation of IC50 were done by GraphPad Prism 5.0 software.

For a further data set, the target named is T2, CYP2D6 (Homo sapiens, UniProt P10635).
T2 construct: tissue Corning (USA); host or cells: mixed human liver microsomes
T2 sequence (P10635 whole entry): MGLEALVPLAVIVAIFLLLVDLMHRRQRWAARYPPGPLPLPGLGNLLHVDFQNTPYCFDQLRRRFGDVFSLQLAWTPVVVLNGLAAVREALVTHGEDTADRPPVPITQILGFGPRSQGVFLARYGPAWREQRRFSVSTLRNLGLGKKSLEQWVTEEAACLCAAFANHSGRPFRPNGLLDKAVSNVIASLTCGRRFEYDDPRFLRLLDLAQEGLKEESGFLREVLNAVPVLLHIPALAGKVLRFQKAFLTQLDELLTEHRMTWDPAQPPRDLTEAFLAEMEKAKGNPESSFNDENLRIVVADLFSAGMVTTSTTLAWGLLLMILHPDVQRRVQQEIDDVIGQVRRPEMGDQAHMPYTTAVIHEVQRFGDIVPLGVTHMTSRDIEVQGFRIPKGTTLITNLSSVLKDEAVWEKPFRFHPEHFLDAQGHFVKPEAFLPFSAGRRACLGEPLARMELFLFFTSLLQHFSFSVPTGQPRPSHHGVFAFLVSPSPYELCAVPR
Kind of data set: CYP450 inhibition in human liver microsomes, CYP2D6. The following applies: human liver microsomes, probe dextromethorphan; read-out: IC50, subtype 2D6. It is filed as in vitro ADME. The procedure:
(§1) This study was intended to investigate the inhibitory effect of the test compounds on five major CYP450 enzyme subtypes CYP1A2, 2C9, 2C19, 2D6 and 3A4 in human liver microsomes. The mixed human liver microsomes used in this assay were purchased from Corning (USA). The test compounds were co-incubated at 7 concentrations with human liver microsomes and five probe substrates (phenacetin for CYP1a2, diclofenac for CYP2C9, mephenytoin for CYP2C19, dextromethorphan for CYP2D6, midazolam for CYP3A4-M, mixed). The reaction was initiated by adding coenzyme NADPH, and terminated by adding acetonitrile containing internal standard. After the proteins were precipitated, the supernatant was centrifuged. The characteristic metabolites in the supernatant (acetaminophen for CYP1A2, 4-hydroxydiclofenac for CYP2C9, 4-hydroxymephenytoin for CYP2C19, dextrorphan for CYP2D6, 1-hydroxymidazolam for CYP3A4-M) were analyzed by LC-MS/MS. The influence of the test compounds on production of the characteristic metabolites was finally analyzed on the basis of the data obtained. A selective inhibitor (ketoconazole for CYP3A4-M) was used as positive control. All samples were tested in duplicate.

A further data set deals with T3, CYP1A2 (Homo sapiens, UniProt P05177).
T3 construct: tissue Corning (USA); host or cells: mixed human liver microsomes
T3 sequence (P05177 1-516): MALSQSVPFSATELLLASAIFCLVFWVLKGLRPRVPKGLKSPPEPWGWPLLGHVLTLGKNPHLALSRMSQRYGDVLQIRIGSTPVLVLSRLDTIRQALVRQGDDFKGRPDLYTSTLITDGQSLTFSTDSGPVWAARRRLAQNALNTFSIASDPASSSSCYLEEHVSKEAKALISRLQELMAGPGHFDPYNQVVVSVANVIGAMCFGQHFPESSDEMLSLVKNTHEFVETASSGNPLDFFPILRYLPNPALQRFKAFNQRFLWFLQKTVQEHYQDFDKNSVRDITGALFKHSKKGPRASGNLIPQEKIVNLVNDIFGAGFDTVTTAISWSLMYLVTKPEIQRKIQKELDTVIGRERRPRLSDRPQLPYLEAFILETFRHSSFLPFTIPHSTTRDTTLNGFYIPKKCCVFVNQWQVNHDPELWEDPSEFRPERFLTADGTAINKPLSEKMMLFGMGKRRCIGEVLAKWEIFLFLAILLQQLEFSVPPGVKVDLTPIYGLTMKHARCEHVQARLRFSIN
Kind of data set: CYP450 inhibition in human liver microsomes, CYP1A2. It is filed as in vitro ADME. The following applies: human liver microsomes, probe phenacetin; read-out: IC50, subtype 1A2. Here is the method: as §1
(In general: Liver microsomes are vesicles of endoplasmic reticulum, rich in cytochrome P450 enzymes.)

With `CN(C)c1cc2nn([C@H]3C[C@H](C(C)(C)O)C3)cc2cc1NC(=O)c1cccc(C(F)(F)F)n1` [MY-004-089], the “Inhibition rate of IL-6” value in data set [1] is reported as 94.33%.

As usually defined, the inhibition is the relative decrease from the control value, in per cent. As a reminder, the IC50 is the concentration at which inhibition is half-maximal. As for `COc1cc2nn([C@H]3CC[C@](C)(O)CC3)cc2cc1NC(=O)c1cccc(C(F)(F)F)n1` [MY-004-126-1], the inhibition at 5 min, 30 µM in data set [2] amounted to 12.8%. Further, the “Inhibition rate of IL-6” value in data set [1] was 97.05%. The IC50 on CYP2D6 and on CYP1A2 was > 30 µM each time.

`COc1cc2nn([C@H]3CC[C@@](C)(O)CC3)cc2cc1NC(=O)c1cccc(C(F)(F)F)n1` [MY-004-126-2] showed an inhibition at 5 min, 30 µM in data set [2] of 10.1%. In data set [1], the “Inhibition rate of IL-6” value was determined as 93.39%.

As for `COc1cc2nn([C@H]3CC[C@H](O)CC3)cc2cc1NC(=O)c1cccc(C(F)(F)F)n1` [MY-004-127-1], the inhibition at 5 min, 30 µM in data set [2] was determined as 11.6%. In addition, the “Inhibition rate of IL-6” value in data set [1] is reported as 83.28%. Further, the IC50 at CYP2D6 and on CYP1A2 was > 30 µM each time.

In turn, `CN(C)c1cc2nn([C@H]3CC[C@H](O)CC3)cc2cc1NC(=O)c1cccc(C(F)(F)F)n1` [MY-004-153] returned an inhibition at 5 min, 30 µM in data set [2] of 17.7%.

Take `CC(C)(O)c1cc2nn([C@H]3CC[C@](C)(O)CC3)cc2cc1NC(=O)c1cccc(C(C)(F)F)n1` [MY-004-165]: the IC50 on CYP2D6 and on CYP1A2 was > 30 µM in each case.
